Holding throughout (assay type): in vitro ADME
Data set [1] in a line: Metabolic stability test, DLM. The settings on record: dog, liver microsomes; for CLint scaled at 1 μM: pH 7.4, read-out: Cl (mL/min/kg) DLM; for half-life at 1 μM: pH 7.4, read-out: T1/2 (min) DLM. The procedure:
(§1) • 1. Buffers: • Buffer A: 1.0 L of 0.1 M monobasic Potassium Phosphate buffer containing 1.0 mM EDTA • Buffer B: 1.0 L of 0.1 M Dibasic Potassium Phosphate buffer containing 1.0 mM EDTA • Buffer C: 0.1 M Potassium Phosphate buffer, 1.0 mM EDTA, pH 7.4 by titrating 700 mL of buffer B with buffer A while monitoring with the pH meter. • 2. Reference compounds (Ketanserin) and test compounds spiking solution: • 500 μM spiking solution: add 10 μL of 10 mM DMSO stock solution into 190 μL ACN. • 1.5 μM spiking solution in microsomes (0.75 mg/mL): add 1.5 μL of 500 μM spiking solution and 18.75 μL of 20 mg/mL liver microsomes into 479.75 μL of Buffer C on ice. • 3. Prepare NADPH stock solution (6 mM) by dissolving NADPH into buffer C. • 4. Dispense 30 μL of 1.5 μM spiking solution containing 0.75 mg/mL microsomes solution to the assay plates designated for different time points (0-, 5-, 15-, 30-, 45-min) on ice. • 5. For 0-min time point, add 135 μL of ACN containing IS to the wells of 0-min plate and then add 15 μL of NADPH stock solution (6 mM). • 6. Pre-incubate all other plates at 37° C. for 5 minutes. • 7. Add 15 μL of NADPH stock solution (6 mM) to the plates to start the reaction and timing. • 8. At 5-min, 15-min, 30-min, and 45-min, add 135 μL of ACN containing IS to the wells of corresponding plates, respectively, to stop the reaction. • 9. After quenching, shake the plates at the vibrator (IKA, MTS 2/4) for 10 min (600 rpm/min) and then centrifuge at 5594 g for 15 min (ThermoMultifuge×3R). • 10. Transfer 50 μL of the supernatant from each well into a 96-well sample plate containing 50 μL of ultra pure water (Millipore, ZMQS50F01) for LC/MS analysis.

The nature of data set [2]: Metabolic stability test, HLM. The following applies: human, liver microsomes; for CLint scaled at 1 μM: pH 7.4, read-out: Cl (mL/min/kg) HLM; for half-life at 1 μM: pH 7.4, read-out: T1/2 (min) HLM. The procedure: as §1
Data set [3] is described as follows: Metabolic stability test, RLM. The following applies: rat, liver microsomes; for CLint scaled at 1 μM: pH 7.4, read-out: Cl (mL/min/kg) RLM; for half-life at 1 μM: pH 7.4, read-out: T1/2 (min) RLM. The procedure:
as §1

Data set [4] in a line: Caco-2 permeability test. The settings on record: human, Caco-2, pH 7.4. The procedure: (§2) • 1. Prewarm HBSS Buffer in 37° C. water bath • 2. Take compounds from −20° C., sonicate for a few minutes (no less than 1 minute) • 3. Solution preparation
(§3) For A-to-B direction: • HBSS buffer with 0.3% DMSO and 5 μM LY: add 150 μL DMSO and 50 μL LY (5 mM) into 50 ml HBSS buffer (pH7.4). • HBSS buffer with 0.1% DMSO and 5 μM LY: add 50 μL DMSO and 50 μL LY (5 mM) into 50 mL HBSS buffer (pH7.4).
(§4) For B-to-A direction: • HBSS buffer with 0.3% DMSO: add 150 μL DMSO into 50 ml HBSS buffer (pH7.4) • HBSS buffer with 0.1% DMSO: add 50 μL DMSO into 50 ml HBSS buffer (pH7.4).
(§5) Receiver Solution Buffer:
(§6) Prepare HBSS buffer with 0.4% DMSO: add 200 μL DMSO into 50 ml HBSS buffer (pH7.4).
(§7) For B-to-A direction: • Prepare HBSS buffer with 0.4% DMSO and 5 uM LY: add 200 μL DMSO and 50 μL LY (5 mM) into 50 ml HBSS buffer (pH7.4).
(§8) Take cell culture plate out of incubator, wash the cell monolayers with HBSS buffer, and then measure TEER values at Rm temperature. • 5. Centrifuge the compound solution (from step 3) at 4000 rpm for 5 min before loading to donor chambers. • 6. Add solution based on the volumes listed in the following table (make sure to take extra 100 uL of donor sample for T0 as Backup).
(§9) • 7. To determine LY concentration in the apical chamber, take 100 μL sample from apical chambers into an opaque plate for LYT0. • 8. Prewarm apical and basolateral plates at 37° C. for about 5 min, then begin transport by placing the apical plate onto basolateral plate. • 9. Keep the plates in incubator at 37° C. for 90 min • 10. Prepare 20× solution
(§10) • 11. Separate the apical plate from the basolateral plate after 90-min incubation. • 12. Take 100 μL samples from basolateral plate to an opaque plate as LYT90. • 13. Measure LY concentrations for LYT0 and LYT90 by Fluorometer (at excitation of 485 nm/emission of 535 nm). • 14. Sample preparation for LC-MS/MS: Donor or receiver samples are diluted by 0.4% DMSO HBSS, then mix with ACN with IS (Osalmid or Imipramine)

For data set [5], the system named is Caco-2. The data set is described as follows: Caco-2 permeability test. The following applies: Caco-2. The protocol:
as §2, §3, §4, §5, §6, §7, §8, §9, §10

Where [6] appears, read: efflux ratio, read-out: Caco-2 Permeability B-A/A-B.

Turning to `COCCOc1cc2nccc(Nc3ccc4scnc4c3)c2cc1P(C)(C)=O` [A8], in data set [1], the CLint scaled at 1 μM stood at 13.7 mL/min/kg and the half-life at 1 μM was determined as 253 min. For the same compound, in data set [2], the CLint scaled at 1 μM amounted to 15.9 mL/min/kg and the half-life at 1 μM was 109 min. For the same compound, in data set [3], the CLint scaled at 1 μM amounted to 25.9 mL/min/kg and the half-life at 1 μM came to 95.7 min. Besides, in data set [4] (A-B), the Papp A→B at 90 min was found to be 11.9 ×10⁻⁶ cm/s. The same compound displayed a Papp B→A at 90 min in data set [4] (B-A) of 35.6 ×10⁻⁶ cm/s. For the same compound, in data set [4] (setting [6]), the efflux ratio at 90 min came to 2.98. Besides, in data set [5], the “efflux (in words)” value was “efflux substrate” and the “permeability (in words)” value is reported as “favorable permeability”.
With `CP(C)(=O)c1cc2c(Nc3ccc4scnc4c3)ccnc2cc1OCCO` [A7, (4-(benzo[d]thiazol-5-ylamino)-7-(2-hydroxyethoxy)quinolin-6-yl)dimethylphosphine oxide], the CLint scaled at 1 μM in data set [1] stood at 2.58 mL/min/kg; in data set [2], 4.13 mL/min/kg; in data set [3], 17 mL/min/kg. The half-life at 1 μM in data set [1] amounted to 1340 min; in data set [2], 421 min; in data set [3], 146 min. In data set [4] (A-B), this compound registered an apical-to-basolateral permeability (Papp A→B) at 90 min of 0.5 ×10⁻⁶ cm/s. In data set [4] (B-A), the Papp B→A at 90 min is 10.2 ×10⁻⁶ cm/s. The efflux ratio at 90 min in data set [4] (setting [6]) was found to be 20.5. Moreover, the “permeability (in words)” value in data set [5] was “low”.
Turning to `CP(C)(=O)c1cc2c(Nc3ccc4scnc4c3)ccnc2cc1OC1COC1` [A16], in data set [2], the CLint scaled at 1 μM was 9.98 mL/min/kg and the half-life at 1 μM turned out to be 174 min. Moreover, in data set [3], the CLint scaled at 1 μM is 16.9 mL/min/kg and the half-life at 1 μM amounted to 147 min. Further, the Papp A→B at 90 min in data set [4] (A-B) came out at 2.16 ×10⁻⁶ cm/s. This compound also registered a basolateral-to-apical permeability (Papp B→A) at 90 min in data set [4] (B-A) of 31.1 ×10⁻⁶ cm/s. In addition, the efflux ratio at 90 min in data set [4] (setting [6]) amounted to 14.4. Moreover, the “permeability (in words)” value in data set [5] is recorded as “low”.
In data set [4] (A-B, test at 2 μM), `CP(C)(=O)c1cc2c(Nc3ccc4scnc4c3)ccnc2cc1OC(F)(F)F` [A24] registered a Papp A→B at 90 min, 2 μM of 16.9 ×10⁻⁶ cm/s. The Papp B→A at 90 min, 2 μM in data set [4] (B-A, test at 2 μM) was 26.6 ×10⁻⁶ cm/s. In addition, the efflux ratio at 90 min, 2 μM in data set [4] (efflux ratio, test at 2 μM, read-out: Caco-2 Permeability B-A/A-B) is 1.58. In addition, in data set [5], the “efflux (in words)” value is “no obvious efflux” and the “permeability (in words)” value is “high permeability”.
With `COc1cc2nccc(Nc3ccc4scnc4c3)c2cc1P(C)(C)=O` [A6], the CLint scaled at 1 μM turned out to be 5.21 mL/min/kg in data set [1], 2.97 mL/min/kg in data set [2] and 25.9 mL/min/kg in data set [3]. The half-life at 1 μM was determined as 664 min in data set [1], 586 min in data set [2] and 95.7 min in data set [3]. In addition, the Papp A→B at 90 min in data set [4] (A-B) was 15.2 ×10⁻⁶ cm/s. This compound yielded a Papp B→A at 90 min in data set [4] (B-A) of 33 ×10⁻⁶ cm/s. Besides, the efflux ratio at 90 min in data set [4] (setting [6]) is 2.18. In data set [5], the “efflux (in words)” value was “no obvious efflux”. Moreover, the “permeability (in words)” value in data set [5] is on record as “high permeability”.
Turning to `CP(C)(=O)c1cc2c(Nc3ccc4scnc4c3)ccnc2cc1O[C@H]1CCOC1` [A14], the CLint scaled at 1 μM in data set [1] came to 5.58 mL/min/kg; in data set [2], 22.9 mL/min/kg; in data set [3], 38.6 mL/min/kg. Besides, the half-life at 1 μM in data set [1] worked out at 619 min; in data set [2], 75.8 min; in data set [3], 64.4 min. This compound also came in with a Papp A→B at 90 min in data set [4] (A-B) of 7 ×10⁻⁶ cm/s. This compound displayed a Papp B→A at 90 min in data set [4] (B-A) of 35.9 ×10⁻⁶ cm/s. The efflux ratio at 90 min in data set [4] (setting [6]) stood at 5.13. Further, the “permeability (in words)” value in data set [5] is “moderate”.
Turning to `CP(C)(=O)c1cc2c(Nc3ccc4scnc4c3)ccnc2cc1O[C@@H]1CCOC1` [A15], the CLint scaled at 1 μM in data set [1] was found to be 4.16 mL/min/kg; in data set [2], 19.6 mL/min/kg; in data set [3], 49.5 mL/min/kg. The figures for the half-life at 1 μM in data set [1], in data set [2] and in data set [3] were 831 min, 88.6 min and 50.2 min, respectively. This compound also showed a Papp A→B at 90 min in data set [4] (A-B) of 5.36 ×10⁻⁶ cm/s. In addition, the Papp B→A at 90 min in data set [4] (B-A) amounted to 35 ×10⁻⁶ cm/s. For the same compound, the efflux ratio at 90 min in data set [4] (setting [6]) was 6.53. Moreover, in data set [5], the “permeability (in words)” value was “moderate”.
Regarding `CC1(COc2cc3nccc(Nc4ccc5scnc5c4)c3cc2P(C)(C)=O)COC1` [A9], the values for the CLint scaled at 1 μM in data set [1], in data set [2] and in data set [3] were 30.1 mL/min/kg, 33.5 mL/min/kg and 63.9 mL/min/kg, respectively. Moreover, the half-life at 1 μM in data set [1] was 115 min; in data set [2] it was 52 min; in data set [3], 38.9 min. In data set [4] (A-B), this compound showed a Papp A→B at 90 min of 7.85 ×10⁻⁶ cm/s. Moreover, in data set [4] (B-A), the Papp B→A at 90 min is 46.5 ×10⁻⁶ cm/s. For the same compound, the efflux ratio at 90 min in data set [4] (setting [6]) stood at 5.92. In data set [5], the “permeability (in words)” value is “moderate”.

These data come from patent publication US20240190904A1, “Heteroaryl compounds as inhibitors of RIP2 kinase, composition and application thereof” (Accro Bioscience (HK) Limited, priority 2021, published 2024).
